Laboratory results published in the NIST ThermoML archive (doi:10.1016/j.jct.2006.11.001).

Assays:
[1] = molar heat capacity at constant pressure; conditions: Liquid, thermal relaxation method
[2] = molar heat capacity at constant pressure; xn = mol fraction of the nth substance listed; conditions: Liquid, thermal relaxation method

CO [methanol]
molar heat capacity at constant pressure [J/K/mol], [1]
Conditions	100 kPa	1000 kPa	5000 kPa	10000 kPa	15000 kPa
280 K	77.22	74.02	73.7	–	–
320 K	87.15	85.87	84.27	–	–
360 K	–	97.41	94.2	94.52	97.09

CO [methanol] + O
molar heat capacity at constant pressure [J/K/mol], [2]
Conditions	x1 = 0.0496	x1 = 0.101	x1 = 0.1936	x1 = 0.2606	x1 = 0.4949	x1 = 0.7943
280 K, 100 kPa	81.21	82.78	82.72	82.56	79.36	77.85
280 K, 1000 kPa	81.39	83.75	85	85.38	82.11	80.76
280 K, 5000 kPa	82.14	83.95	85.2	84.52	79.61	76.97
320 K, 100 kPa	80.27	84.53	87.9	89.5	89.35	89.22
320 K, 1000 kPa	79.52	83.75	88.52	89.72	89.1	87.76
320 K, 5000 kPa	81.95	85.5	89.76	91.67	88.6	87.76
360 K, 1000 kPa	81.02	84.72	90.8	92.75	94.34	94.47
360 K, 5000 kPa	80.83	84.53	90.59	92.97	93.59	94.47
360 K, 10000 kPa	82.52	86.28	92.87	95.35	95.09	95.92
360 K, 15000 kPa	82.52	86.67	92.25	95.57	95.58	95.63
